# Earlier results as cited in patent US8778301B2, “Gamma-hydroxybutyrate compositions containing carbohydrate, lipid or amino acid carriers” (Orphan Medical, Inc., priority 2000, dated 2014).
# Where a name gives a salt, the structure may show the parent alone.
# Legend:
# [1] = not given; remark: listed apart in the source
# [2] = in vivo
# [3] = patients
# [4] = heroin and methadone withdrawal
# [5] = intravenous administration, patients
# [6] = patients; remark: listed apart in the source
# [7] = not given; remark: listed apart in the source
# [8] = healthy volunteers, 12.5, 25 and 50 mg/kg
smiles,measurement,setting,value
"O=C(O)CCCO [GHB monosodium salt, sodium oxybate]",duration of normal sequence of NREM and REM sleep,"healthy human volunteers, low doses (about 30 mg/kg)",2 to 3 h
same,tolerance to sleep-inducing effects,"low doses, over time",without the development of tolerance
"O=C(O)CCCO [GHB, Gamma-hydroxybutyric acid]",continuity of sleep,[1]; clinical trials,improves the continuity of sleep
same,delta sleep,[1]; clinical trials,increases delta sleep
same,REM latency,"[1]; human, in vivo",decreases REM latency
same,sleep apnea,"[1]; human, in vivo",reduces sleep apnea
same,total sleep time and REM sleep,"[1]; human, in vivo",increases total sleep time and REM sleep
same,"signs and symptoms of narcolepsy (daytime sleepiness, cataplexy, sleep paralysis, hypnagogic hallucinations)",[2],substantially reduces the signs and symptoms of narcolepsy
same,"alcohol craving, daily drinks, alcohol withdrawal symptoms",[3],"reduce alcohol craving, the number of daily drinks consumed, and the symptoms of alcohol withdrawal"
same,symptoms of opiate withdrawal,[4],decrease the symptoms of opiate withdrawal
same,intracranial pressure,[5],reduce intracranial pressure
same,growth hormone levels,[6],increase growth hormone levels
same,organ or other toxicities in periodic clinical laboratory tests,[7]; long-term treatment of narcolepsy,have not indicated organ or other toxicities
same,development of tolerance,[7]; patients treated for many years,without development of tolerance
same,oral absorption and elimination processes,[8],capacity-limited
